Test results: patent US10124065B2, “Lipids and lipid compositions for the delivery of active agents” (Novartis AG, priority 2013, dated 2018)
Like-named read-outs stand apart in the source and are kept apart here.

Key:
[1] = Polydispersity index (PDI) of lipid nanoparticle (dynamic light scattering); type: physicochemical
Description: Unless indicated otherwise, all PDIs referred to herein are the PDI of the fully formed nanoparticle, as measured by dynamic light scattering on a Malvern Zetasizer. The nanoparticle sample was diluted in phosphate buffered saline (PBS) so that the count rate was approximately 200-400 kcts. The data is presented in Tables 4 and 5 as a weighted average of the intensity measure.

[2] = pKa measurement of cationic lipid (TNS fluorescence); type: physicochemical; settings: pKa of the cationic lipid of formula (I), Table 4
Description: Unless indicated otherwise, all pKa's referred to herein were measured at standard temperature and pressure. Also, unless otherwise indicated, all references to pKa are references to pKa measured using the following technique. 2 mM solution of lipid in ethanol was prepared by weighing the lipid and then dissolving it in ethanol. 0.3 mM solution of fluorescent probe TNS in ethanol:methanol 9:1 was prepared by first making 3 mM solution of TNS in methanol and then diluting to 0.3 mM with ethanol. An aqueous buffer containing 200 mM sodium phosphate dibasic and 100 mM citric acid was prepared. […] Using the Hamilton Microlab Star high throughput liquid handler and Hamilton run control software Software, 7.5 uL of probe/lipid mix were added to 242.5 uL of buffer in a 1 mL 96 well plate (model NUNC 260252, […] Nunc International). This was done with all twelve buffers. After mixing in 1 mL 96 well plate, 100 uL of each probe/lipid/buffer mixture was transferred to a 250 uL black with clear bottom 96 well plate (model COSTAR 3904, Corning). The fluorescence measurements are carried out on the SpectraMax M5 spectrophotometer using software SoftMax pro 5.2 and following parameters: After the measurement, the background fluorescence value of an empty well on the 96 well plate was subtracted from each probe/lipid/buffer mixture. The fluorescence intensity values were then normalized to the value at lowest pH. The normalized fluorescence intensity vs. pH chart was then plotted in the Microsoft Excel software. The twelve points were connected with a smooth line. The point on the line at which the normalized fluorescence intensity was equal to 0.5 was found. […] The pKa determined using this method is precise to about 0.1 pKa units.

[3] = Particle size of lipid nanoparticle (dynamic light scattering, Malvern Zetasizer); type: physicochemical
Source text: The lipid nanoparticles have a size of about 1 to about 2,500 nm, about 1 to about 1,500 nm, about 1 to about 1,000 nm, in a sub-embodiment about 50 to about 600 nm, in a sub-embodiment about 50 to about 400 nm, in a sub-embodiment about 50 to about 250 nm, and in a sub-embodiment about 50 to about 150 nm. Unless indicated otherwise, all sizes referred to herein are the average sizes (diameters) of the fully formed nanoparticle, as measured by dynamic light scattering on a Malvern Zetasizer. The nanoparticle sample is diluted in phosphate buffered saline (PBS) so that the count rate is approximately 200-400 kcts. The data is presented as a weighted average of the intensity measure. Unless indicated otherwise, all particle size measurements referred to in Tables 4 and 5 are the Z-average particle size of the fully formed nanoparticle, as measured by dynamic light scattering on a Malvern Zetasizer. The nanoparticle sample was diluted in phosphate buffered saline (PBS) so that the count rate is approximately 200-400 kcts.

[4] = test system: plasma Factor VII enzyme activity; experiment: Mouse Factor VII dosing / Factor VII Activity Assay; type: in vivo; settings: percent knock down of plasma Factor VII activity, CD-1 mice, 48 h; for KD FVII 0.03 mg/kg: single IV dose 0.03 mg/kg; for KD FVII 0.3 mg/kg: single IV dose 0.3 mg/kg
In short: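 Female CD-1 mice (~25 g) received a single IV tail-vein dose of lipid-nanoparticle-formulated Factor VII siRNA (0.3 or 0.03 mg/kg). Plasma taken ~48 h later; FVII activity measured chromogenically against vehicle-control plasma standard curve, reported as % knockdown.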

[5] = test system: respiratory syncytial virus F protein; experiment: Immunization studies, anti-RSV-F titers; type: in vivo; settings: anti-RSV-F titer, BALB/c, course A = days 0 & 21, liposomes with 0.1 μg vA317 replicon (naked: 1 μg); for 2wp1 pool 1 / 2wp1 pool 2: 2 weeks after first dose; for 2wp2 pool 1 / 2wp2 pool 2: 2 weeks after second dose
Description: BALB/c were immunized with liposomes comprising DSPC, cholesterol, and various lipids of the invention (or, for comparison, the cationic lipid 1,2-dilinoleyloxy-N,N-dimethyl-3-aminopropane or ‘DLinDMA’). The liposomes encapsulated 0.1 μg of “vA317” self-replicating RNA replicon which encodes respiratory syncytial virus F protein (see WO2012/031043). […] Doses were given either on days 0 & 21 or days 0 & 42. Immune responses were assessed 2 weeks after each dose (2wp1, 2wp2), and in some cases also at 4 weeks after the second dose (4wp2).

PLK-1 mRNA = experiment: LS411N Xenograft Assay; type: in vivo, Nu/Nu mice; settings: percent knock down of PLK-1 mRNA vs control in LS411N tumors; IV 3 mg/kg daily for three days; LNP Chol/DSPC/S010 45/44/9/2
Description: Female Nu/Nu mice (6-8 weeks old) were implanted subcutaneously with 5×10^6 LS411N cells. Tumor growth was monitored by caliper measurement before treatment initiation. Mice bearing 150-250 mm^3 subcutaneous tumors were randomized and enrolled in the study. The stock siRNA formulations were diluted to […] with PBS for dosing. Animals enrolled in different groups received a single daily bolus IV injection of 3 mg/kg siRNA for three days. Tumors were harvested 24 hours post last injection to assess target gene regulation by qRT-PCR.
Lipid nanoparticles comprising lipid compounds of formula (I) and the PLK1-424 siRNA duplex sequence listed above were tested in the LS411N Xenograft Assay. The results of this assay are given in Table 5 below as a percent knock down of PLK-1 mRNA as compared to the control when administered as a single daily dose for three days at a dose of 3 mg/kg.

human leptin = experiment: Mouse intravenous tail vein injection of modified synthetic leptin mRNA, human leptin ELISA; type: in vivo, C57BL/6 mouse; settings: human leptin in mouse plasma, 10 μg leptin mRNA, 24 h
Description: Before the tail vein injection, mouse body weights were recorded and diet weighted, with mice grouped according to their body weights. Mice were prepared by warming them under a heating lamp for ˜2 minutes, with the mice about 12 inches from heat lamp.
For the tail vein injection procedure, the mice were placed in a restrainer and their tails cleaned with 70% alcohol. A 27 gauge needle (Becton Dickinson, Catalogue #305109) connected with a 1 ml syringe (Becton Dickinson, Catalogue #309659) was inserted into the tail vein, with bevel facing up, and the syringe plunger was pulled backwards to ensure blood is drawn into the syringe. The desired volume of modified synthetic leptin mRNA was injected by hand with moderate pressure and speed. The needle was then withdrawn and bleeding stopped by adding pressure to injection site with gauze.
Single housed, 8-9 week old, male C57BL/6 mice were used for the in vivo study. FPLC purified modified synthetic leptin mRNA (SEQ ID NO: 5) in which the uridines were substituted with pseudouridine was packaged in a cationic lipid (N:P molar ratio=8:1) and then were diluted in injectable saline at a dose of 10 μg per average group body weight.
On day 0, animals were weighed and sorted according to average body weight. Mice were dosed, and food intake (FI) was recorded, on each of days 1-7 and days 9, 11, and 16.
Human leptin in mouse plasma was measured by ELISA. Antibodies purchased from the R&D Systems duoset (Cat# DY398E, part#840279 for capture antibody and part#840280 for detection antibody) were reconstituted using PBS and titered, again using PBS. The capture antibody was coated at 4 ug/ml in 30 ul/well on a white Nunc® Maxisorp 384 well plate (Cat#460372). After an overnight incubation at room temperature the capture antibody was aspirated and the plate blocked for 2 hours at room temperature with 90 ul/well of KPL milk blocker (Cat#50-82-00). Once the incubation was completed the plate was aspirated and recombinant standards and samples were added to the plate at 30 ul/well for 2 hours at 37° C. while shaking at 600 rpm. Sample/standard dilutions were made using casein sample diluent. Washing/aspiration 3 times with 100 ul/well followed, using Teknova plate wash solution (Cat# P1192). Next, detection antibody was diluted using casein detection antibody diluent to 12.5 ng/ml and added at 30 ul/well for 2 hours room temperature. After this incubation, the plate was washed again and a solution of poly-streptavidin-HRP (Cat#21140) at a 1:1250 dilution in HRP dilution buffer was added to each well (30 ul/well) and incubated for 30 minutes room temperature. A final wash/aspiration removed the HRP solution and a chemiluminescent substrate was added at 30 ul/well (Cat#1859678 & 1859679). The plate was quickly read using a SpectramaxM5 plate reader with a 50 ms integration time. The dynamic range of the ELISA is from 100-2,000 pg/ml (6.25-125 pM) of human leptin.

[6] = FVII siRNA LNP, Chol/DSPC/PEG-DMG, molar ratio 45/44/9/2
[7] = FVII siRNA LNP, Chol/DSPC/PEG-DMG, molar ratio 45/44/9/2, Z-average
[8] = LNP Chol/DSPC/PEG-DMG 45/44/9/2
[9] = FVII siRNA LNP, Chol/DSPC/S010, molar ratio 45/44/9/2
[10] = PLK1-424 siRNA LNP, Chol/DSPC/S011 45/44/9/2
[11] = FVII siRNA LNP, Chol/DSPC/S010, molar ratio 45/44/9/2, Z-average

CCCCCCCCOC(CCCOc1cc(CN(C)C)cc(OCCCC(OCCCCCCCC)OCCCCCCCC)c1)OCCCCCCCC [Ex. 126, 1-(3,5-bis(4,4-bis(octyloxy)butoxy)phenyl)-N,N-dimethylmethanamine]
PDI [1, 6]: 0.075 | pKa ([2]; probe TNS, read-out: pKa): 5.54 | Size (nm) [3, 7]: 95.2 nm | KD FVII 0.03 mg/kg [4, 8]: 31.7%

CCCCC/C=C\C/C=C\CCCCCCCCOc1cc(CN(C)C)cc(OCCCCCCCC/C=C\C/C=C\CCCCC)c1 [Example 2, 1-(3,5-bis((9Z,12Z)-octadeca-9,12-dien-1-yloxy)phenyl)-N,N-dimethylmethanamine]
PDI [1, 6]: 0.04 | PDI [1, 9]: 0.067 | PDI [1, 10]: 0.1 | pKa ([2]; listed as Ex. 2): 5.46 | 2wp1 pool 1 [5]: 217 | 2wp1 pool 2 [5]: 259 | 2wp2 pool 1 [5]: 12785 | 2wp2 pool 2 [5]: 8232 | Size (nm) [3, 7]: 97.4 nm | Size (nm) [3, 11]: 92.85 nm | Size (nm) [3, 10]: 88.19 nm | KD FVII 0.03 mg/kg ([4]; LNP Chol/DSPC/S010 45/44/9/2): 55% | KD FVII 0.3 mg/kg [4, 8]: 95.5%

CCCCC/C=C\C/C=C\CCCCCCCC(=O)Oc1cc(COC(=O)CCN(C)C)cc(OC(=O)CCCCCCC/C=C\C/C=C\CCCCC)c1 [Example 26, (9Z,9′Z,12Z,12′Z)-5-(((3-(dimethylamino)propanoyl)oxy)methyl)-1,3-phenylene bis(octadeca-9,12-dienoate)]
PDI [1, 6]: 0.04 | PDI [1, 9]: 0.046 | pKa ([2]; probe TNS, read-out: pKa): 6.45 | 2wp1 pool 1 [5]: 4 | 2wp1 pool 2 [5]: 4 | 2wp2 pool 1 [5]: 10 | 2wp2 pool 2 [5]: 10 | 4wp2 pool 1 ([5]; 4 weeks after second dose): 10 | 4wp2 pool 2 ([5]; 4 weeks after second dose): 10 | Size (nm) [3, 7]: 104.3 nm | Size (nm) [3, 11]: 121.6 nm | KD FVII 0.3 mg/kg [4, 8]: 58.1%

CCCCCCCC(=O)OCCCCCCCCOc1cc(CN(C)C)cc(OCCCCCCCCOC(=O)CCCCCCC)c1 [Example 42, ((5-((dimethylamino)methyl)-1,3-phenylene)bis(oxy))bis(octane-8,1-diyl)dioctanoate]
LS411 KD 3 × 3 mg/Kg (PLK-1 mRNA): 50% | KD FVII 0.03 mg/kg ([4]; LNP Chol/DSPC/S010 45/44/9/2): 92.8%

CCCCCCCC(=O)OCCCCCC(=O)OCc1cc(COC(=O)CCCCCOC(=O)CCCCCCC)cc(CN(C)C)c1 [Example 85, (((5-((dimethylamino)methyl)-1,3-phenylene)bis(methylene))bis(oxy))bis(6-oxohexane-6,1-diyl)dioctanoate]
Leptin expression IV-C57BI/6, 24 h (human leptin): 1.78 ng/mL

CCCCCCCC(=O)OCCCCCCCCCC(=O)OCc1cc(COC(=O)CCCCCCCCCOC(=O)CCCCCCC)cc(CN(C)C)c1 [Example 86, (5-((dimethylamino)methyl)-1,3-phenylene)bis(methylene)bis(10-(octanoyloxy)decanoate)]
pKa ([2]; listed as Ex. 86): 5.81 | KD FVII 0.03 mg/kg ([4]; LNP Chol/DSPC/S010 45/44/9/2): 0% | KD FVII 0.3 mg/kg [4, 8]: 55.3%

CCCCCCCC(=O)OC[C@@H](CCOc1cc(CN(C)C)cc(OCC[C@@H](COC(=O)CCCCCCC)OC(=O)CCCCCCC)c1)OC(=O)CCCCCCC [Example 92, (R)-4-(3-((S)-3,4-bis(octanoyloxy)butoxy)-5-((dimethylamino)methyl)phenoxy)butane-1,2-diyldioctanoate]
Leptin expression IV-C57BI/6, 24 h (human leptin): 1.34 ng/mL | KD FVII 0.03 mg/kg ([4]; LNP Chol/DSPC/S010 45/44/9/2): 89.4%
